Measurements as given in patent US11414436B2, “Non-coordinating anion type activators containing cation having large alkyl groups” (ExxonMobil Chemical Patents Inc., priority 2018, dated 2022).
“And” between values parts separate entries of the source, which are not always exact repeats. Identical values can stand only once.

What was measured:
[1] = Solubility studies of the activators (saturated solution in isohexane or methylcyclohexane); assay type: physicochemical; settings: for Solubility limit in i-hexane (mM at 25° C.) / Solubility limit in i-hexane (wt % at 25° C.): isohexane; for Solubility limit in MeCy (mM at 25° C.): methylcyclohexane
Method: Solubility Studies of the Activators
Procedure for Solid Activators.
A saturated solution of each of the solid ammonium borate activators was prepared by stirring an excess of the activator with either isohexane or methylcyclohexane solvent for several hours at 25° C. The mixture was then filtered and a known volume of the filtrate was evaporated to dryness in a tared vial. The vial was then weighed to determine the mass of activator that was dissolved in the aliquot. The concentration of the saturated solution is presented in millimoles of activator per liter of solution (mM).
Procedure for Activators that Form Emulsions.
A saturated solution of the activator was prepared by slowly adding the solvent to a pre-weighed amount of the activator. The final volume was determined as the minimum amount of solvent required to convert the emulsion into a homogeneous solution. The concentration of the saturated solution is presented in millimoles of activator per liter of solution (mM). Alternatively, an emulsion of the activator was prepared by adding the solvent to an excess amount of activator. The resulting emulsion was separated from the undissolved solids by decanting the emulsion into a tared vial. Solvent was then added dropwise until the emulsion became homogeneous. The mass of the final solution was measured and then the solvent was evaporated to dryness to obtain the mass of the activator. The concentration of the saturated solution is presented in millimoles of activator per liter of solution (mM).

[2] = as above; assay type: physicochemical; settings: methylcyclohexane
[3] = Ethylene-octene copolymerization in parallel pressure reactor, non-metallocene catalyst CAT-2; settings: catalyst CAT-2 20 nmol; activator 1.1 equiv; 100° C.; 135 psi; 1-octene 100 uL; TNOAL 0.5 umol
Method: (§1) Solutions of the metal complexes and activators were prepared in a drybox using toluene or methylcyclohexane. Concentrations were typically 0.2 mmol/L. Tri-n-octylaluminum (TNOAL, neat, AkzoNobel) was typically used as a scavenger. Concentration of the TNOAL solution in toluene ranged from 0.5 to 2.0 mmol/L.
(§2) Polymerizations were carried out in a parallel pressure reactor, as generally described in U.S. Pat. Nos. 6,306,658; 6,455,316; 6,489,168; WO 00/09255; and Murphy, V. et al. (2003) “A Fully Integrated High-Throughput Screening Methodology for the Discovery of New Polyolefin Catalysts: Discovery of a New Class of High Temperature Single-Site Group (IV) Copolymerization Catalysts,” J. Am. Chem. Soc., v. 125, pp. 4306-4317, each of which is fully incorporated herein by reference. […] Although the specific quantities, temperatures, solvents, reactants, reactant ratios, pressures, and other variables are frequently changed from one polymerization run to the next, the following describes a typical polymerization performed in a parallel pressure reactor.
(§3) Ethylene-Octene Copolymerization (EO).
(§4) A pre-weighed glass vial insert and disposable stirring paddle were fitted to each reaction vessel of the reactor, which contains 48 individual reaction vessels. The reactor was then closed and purged with ethylene. Each vessel was charged with enough solvent (typically isohexane) to bring the total reaction volume, including the subsequent additions, to the desired volume, typically 5 mL. 1-octene, if required, was injected into the reaction vessel and the reactor was heated to the set temperature and pressurized to the predetermined pressure of ethylene, while stirring at 800 rpm. The aluminum compound (such as tri-n-octylaluminum) in toluene was then injected as scavenger followed by addition of the activator solution (typically 1.0-1.2 molar equivalents).
(§5) The catalyst (and activator solutions for Run A) were all prepared in toluene. The catalyst solution (typically 0.020-0.080 μmol of metal complex) was injected into the reaction vessel and the polymerization was allowed to proceed until a pre-determined amount of ethylene (quench value typically 20 psi) had been used up by the reaction. Alternatively, the reaction may be allowed to proceed for a set amount of time (maximum reaction time typically 30 minutes). Ethylene was added continuously (through the use of computer controlled solenoid valves) to the autoclaves during polymerization to maintain reactor gauge pressure (P setpt, +/−2 psig) and the reactor temperature (T) was monitored and typically maintained within +/−1° C. The reaction was quenched by pressurizing the vessel with compressed air. After the reactor was vented and cooled, the glass vial insert containing the polymer product and solvent was removed from the pressure cell and the inert atmosphere glove box, and the volatile components were removed using a Genevac HT-12 centrifuge and Genevac VC3000D vacuum evaporator operating at elevated temperature and reduced pressure. The vial was then weighed to determine the yield of the polymer product. The resultant polymer was analyzed by Rapid GPC (see below) to determine the molecular weight, by FT-IR (see below) to determine percent octene incorporation, and by DSC (see below) to determine melting point (Tm).
(§6) Equivalence is determined based on the mole equivalents relative to the moles of the transition metal in the catalyst complex.
(§7) Activators of the present disclosure can also be used for activating non-metallocene catalysts for polymerization of olefins. Table 4 illustrates copolymerization of ethylene and octene using activators of the present disclosure and non-metallocene catalysts (CAT-1, CAT-2, CAT-3, and CAT-4).

[4] = Propylene homopolymerization in parallel pressure reactor, MCN-1 with ammonium borate activators; settings: for activity: isohexane
Source text: Polymerization in Parallel Pressure Reactor
Solvents, polymerization-grade toluene, and isohexane were supplied by ExxonMobil Chemical Company and purified by passing through a series of columns: two 500 cc Oxyclear cylinders in series from Labclear (Oakland, Calif.), followed by two 500 cc columns in series packed with dried 3 Å mole sieves (8-12 mesh; Aldrich Chemical Company), and two 500 cc columns in series packed with dried 5 Å mole sieves (8-12 mesh; Aldrich Chemical Company). 1-octene (C8) and 1-hexene (C6) (98%, Aldrich Chemical Company) were dried by stirring over NaK overnight followed by filtration through basic alumina (Aldrich Chemical Company, Brockman Basic 1).
as §1, §2
Catalyst systems dissolved in solution were used in the polymerization examples below, unless specified otherwise.
RUN A: Propylene Homopolymerization (PP).
The reactor was prepared as described above and purged with propylene. For the examples in Table 2, the catalyst and activator solutions were prepared in toluene. […] Isohexane was then injected into each vessel at room temperature followed by a predetermined amount of propylene gas. The reactor was heated to the set temperature while stirring at 800 rpm, and the scavenger, activator and catalyst solutions were injected sequentially to each vessel. The polymerization was allowed to proceed as described previously.
A series of propylene polymerizations were performed in parallel pressure reactors (PPRs) developed by Symyx Technologies, Inc. In these polymerizations, the metallocene rac-dimethylsilyl-bis(indenyl)hafnium dimethyl (MCN-1) was used along with several different ammonium borate activators. Polymerizations were performed at 85° C. and 100° C.
Propylene homopolymerization (PP).
A series of propylene polymerizations were performed in the parallel pressure reactor similar to the procedure described above. In these studies rac-dimethylsilyl-bis(indenyl)hafnium dimethyl (MCN-1) was used along with ammonium borate activators.

[5] = Ethylene-octene copolymerization in parallel pressure reactor, non-metallocene catalyst CAT-1; settings: catalyst CAT-1 20 nmol; activator 1.1 equiv; 100° C.; 135 psi; 1-octene 100 uL; TNOAL 0.5 umol
Method: as §1, §2, §3, §4, §5, §6, §7

[6] = Ethylene-octene copolymerization in parallel pressure reactor, non-metallocene catalyst CAT-4; settings: catalyst CAT-4 20 nmol; activator 1.1 equiv; 100° C.; 135 psi; 1-octene 100 uL; TNOAL 0.5 umol
Method: as §1, §2, §3, §4, §5, §6, §7

[7] = Ethylene-octene copolymerization in parallel pressure reactor, non-metallocene catalyst CAT-3; settings: catalyst CAT-3 20 nmol; activator 1.1 equiv; 100° C.; 135 psi; 1-octene 100 uL; TNOAL 0.5 umol
Method: as §1, §2, §3, §4, §5, §6, §7

[8] = propylene, 100 °C, 150 psi, MCN-1 = 20 nmol, activator = 20 nmol, TNOAL 500 nmol

## CCCCCCCCCCCCCCCCCC[NH+](CCCCCCCCCCCCCCCCCC)c1ccccc1C.Fc1c(F)c(F)c2c(F)c([B-](c3c(F)c(F)c4c(F)c(F)c(F)c(F)c4c3F)(c3c(F)c(F)c4c(F)c(F)c(F)c(F)c4c3F)c3c(F)c(F)c4c(F)c(F)c(F)c(F)c4c3F)c(F)c(F)c2c1F [DOdoTH-BF28, 2-methyl-N,N-dioctadecylbenzenaminium-BF28]
[1]
  Solubility limit in i-hexane (mM at 25° C.): 3.0 mM
  Solubility limit in i-hexane (wt % at 25° C.): 0.73 wt %
  Solubility limit in MeCy (mM at 25° C.): >190 mM
[2]
  Solubility limit in MeCy (wt % at 25° C.): >40 wt %

## CCCCCCCCCC[NH+](C)c1ccccc1.Fc1c(F)c(F)c([B-](c2c(F)c(F)c(F)c(F)c2F)(c2c(F)c(F)c(F)c(F)c2F)c2c(F)c(F)c(F)c(F)c2F)c(F)c1F [MDAH-BF20, N-decyl-N-methylanilinium-BF20]
[1]
  Solubility limit in i-hexane (mM at 25° C.): 1.3 mM
  Solubility limit in i-hexane (wt % at 25° C.): 0.18 wt %
  Solubility limit in MeCy (mM at 25° C.): 1.4 mM
[2]
  Solubility limit in MeCy (wt % at 25° C.): 0.17 wt %

## CCCCCCCCCC[NH+](C)c1ccccc1.Fc1c(F)c(F)c2c(F)c([B-](c3c(F)c(F)c4c(F)c(F)c(F)c(F)c4c3F)(c3c(F)c(F)c4c(F)c(F)c(F)c(F)c4c3F)c3c(F)c(F)c4c(F)c(F)c(F)c(F)c4c3F)c(F)c(F)c2c1F [MDAH-BF28, N-decyl-N-methylanilinium-BF28]
[1]
  Solubility limit in i-hexane (mM at 25° C.): 0.9 mM
  Solubility limit in i-hexane (wt % at 25° C.): 0.12 wt %
  Solubility limit in MeCy (mM at 25° C.): 1.7 mM
[2]
  Solubility limit in MeCy (wt % at 25° C.): 0.21 wt %

## CCCCCCCCCCCCCCCCCCc1ccc([NH+](C)C)cc1.Fc1c(F)c(F)c([B-](c2c(F)c(F)c(F)c(F)c2F)(c2c(F)c(F)c(F)c(F)c2F)c2c(F)c(F)c(F)c(F)c2F)c(F)c1F [OdDMAH-BF20, N,N-dimethyl-4-octadecylbenzenaminium-BF20]
[1]
  Solubility limit in i-hexane (mM at 25° C.): 0.8 mM
  Solubility limit in i-hexane (wt % at 25° C.): 0.10 wt %
  Solubility limit in MeCy (mM at 25° C.): 7.9 mM
[2]
  Solubility limit in MeCy (wt % at 25° C.): 1.1 wt %

## CCCCCCCCCCCCCCCCCCc1ccc([NH+](C)C)cc1.Fc1c(F)c(F)c2c(F)c([B-](c3c(F)c(F)c4c(F)c(F)c(F)c(F)c4c3F)(c3c(F)c(F)c4c(F)c(F)c(F)c(F)c4c3F)c3c(F)c(F)c4c(F)c(F)c(F)c(F)c4c3F)c(F)c(F)c2c1F [OdDMAH-BF28, N,N-dimethyl-4-octadecylbenzenaminium-BF28]
[1]
  Solubility limit in i-hexane (mM at 25° C.): <0.1 mM
  Solubility limit in i-hexane (wt % at 25° C.): <0.1 wt %
  Solubility limit in MeCy (mM at 25° C.): 1.9 mM
[2]
  Solubility limit in MeCy (wt % at 25° C.): 0.3 wt %

## Di(hydrogenated tallow)methylamine-BF20 [M2HTH-BF20]
[3]
  activity: 806 kg/mmol/h and 755 kg/mmol/h
[4]; [8]
  activity: 46 kg/mmol/h and 30 kg/mmol/h and 36 kg/mmol/h
[5]
  activity: 2030 kg/mmol/h and 2214 kg/mmol/h
[6]
  activity: 51 kg/mmol/h and 63 kg/mmol/h
[7]
  activity: 711 kg/mmol/h and 786 kg/mmol/h

## Di(hydrogenated tallow)methylamine-BF28 [M2HTH-BF28]
[3]
  activity: 620 kg/mmol/h and 352 kg/mmol/h
[4]; Activator Equiv 1.0, TNOAL 0.25 umol, MCN-1 30 nmol, 85° C., propylene 135 psi
  activity: 187 kg/mmol/h and 167 kg/mmol/h and 160 kg/mmol/h
[4]; Activator Equiv 1.0, TNOAL 0.50 umol, MCN-1 30 nmol, 85° C., propylene 135 psi
  activity: 151 kg/mmol/h and 113 kg/mmol/h and 118 kg/mmol/h
[4]; Activator Equiv 1.0, TNOAL 0.75 umol, MCN-1 30 nmol, 85° C., propylene 135 psi
  activity: 102 kg/mmol/h and 95 kg/mmol/h
[4]; Activator Equiv 1.2, TNOAL 0.25 umol, MCN-1 30 nmol, 85° C., propylene 135 psi
  activity: 203 kg/mmol/h and 195 kg/mmol/h and 166 kg/mmol/h
[4]; Activator Equiv 1.2, TNOAL 0.50 umol, MCN-1 30 nmol, 85° C., propylene 135 psi
  activity: 169 kg/mmol/h and 153 kg/mmol/h
[4]; Activator Equiv 1.2, TNOAL 0.75 umol, MCN-1 30 nmol, 85° C., propylene 135 psi
  activity: 119 kg/mmol/h and 104 kg/mmol/h
[4]; Activator Equiv 1.4, TNOAL 0.25 umol, MCN-1 30 nmol, 85° C., propylene 135 psi
  activity: 204 kg/mmol/h and 196 kg/mmol/h and 178 kg/mmol/h
[4]; Activator Equiv 1.4, TNOAL 0.50 umol, MCN-1 30 nmol, 85° C., propylene 135 psi
  activity: 157 kg/mmol/h and 142 kg/mmol/h
[4]; Activator Equiv 1.4, TNOAL 0.75 umol, MCN-1 30 nmol, 85° C., propylene 135 psi
  activity: 127 kg/mmol/h and 103 kg/mmol/h
[4]; Activator Equiv 1.6, TNOAL 0.25 umol, MCN-1 30 nmol, 85° C., propylene 135 psi
  activity: 229 kg/mmol/h and 203 kg/mmol/h and 180 kg/mmol/h
[4]; Activator Equiv 1.6, TNOAL 0.50 umol, MCN-1 30 nmol, 85° C., propylene 135 psi
  activity: 168 kg/mmol/h and 144 kg/mmol/h
[4]; Activator Equiv 1.6, TNOAL 0.75 umol, MCN-1 30 nmol, 85° C., propylene 135 psi
  activity: 129 kg/mmol/h and 117 kg/mmol/h
[4]; MCN-1, polypropylene at 100° C., Table 7 runs
  average catalyst activity, comparison of the four activators (FIG. 6): much lower activity
[4]; propylene, 85 °C, 135 psi, MCN-1 = 20 nmol, activator = 20 nmol, TNOAL 500 nmol
  activity: 75 kg/mmol/h and 55 kg/mmol/h
[4]; [8]
  activity: 49 kg/mmol/h and 60 kg/mmol/h and 96 kg/mmol/h
[5]
  activity: 2494 kg/mmol/h and 1709 kg/mmol/h
[6]
  activity: 48 kg/mmol/h and 65 kg/mmol/h
[7]
  activity: 825 kg/mmol/h and 863 kg/mmol/h
